Assay results published in patent US20070128217A1 (priority 2003, published 2007).

Assays:
[1] = system: rabbit serum obtained by immunizing a rabbit with the SARS-CoV strain Frankfurt 1; type: binding; parameters: Binding of a rabbit serum to linear peptides / Binding of a rabbit serum to looped peptides / Rabbit serum linear peptides / Rabbit serum looped peptides / Binding of a rabbit serum to linear peptides of protein N of SARS-CoV Urbani (Rabbit serum linear peptides) / Binding of a rabbit serum to looped/cyclic peptides of protein N of SARS-CoV Urbani (Rabbit serum looped peptides): unit not given here
[2] = system: control sera (pooled serum of ten healthy LUMC hospital workers; commercial negative donor pooled serum from the Dutch bloodbank); type: binding, human; parameters: Binding of Control serum LUMC to linear peptides / Binding of Control serum Blood-bank to linear peptides / Binding of Control serum LUMC to looped peptides / Binding of Control Serum Blood-Bank to Looped peptides / Binding of Control serum LUMC to linear peptides of the protein M of SARS-CoV Urbani / Binding of Control serum Blood-bank to linear peptides of the protein M of SARS-CoV Urbani / Binding of Control serum LUMC to looped peptides of the protein M of SARS-CoV Urbani / Binding of Control Serum Blood-Bank to Looped peptides of the protein M of SARS-CoV Urbani: unit not given here
[3] = system: antibodies in sera from SARS patients (sera 1a, 1b, 2, 6, 37, 62, London, SARS-yellow, SARS-green); type: binding, human; parameters: Binding of serum 6 to linear peptides of protein X1 of SARS-CoV Urbani / Binding of serum 37 to linear peptides of protein X1 of SARS-CoV Urbani / Binding of serum 6 to looped/cyclic peptide (PEPSCAN-ELISA) / Binding of serum 37 to looped/cyclic peptide (PEPSCAN-ELISA) / Binding of serum 37 to looped/cyclic peptides of protein X1 of SARS-CoV Urbani / Binding of serum 6 to linear peptides of protein X2 / Binding of serum 37 to linear peptides of protein X2 / Binding of serum 37 to looped/cyclic peptides of protein X2 of SARS-CoV Urbani / Binding of serum 6 to linear peptides of protein M of SARS-CoV Urbani / Binding of serum 37 to linear peptides of protein M of SARS-CoV Urbani / Binding of serum 6 to looped/cyclic peptides of protein M of SARS-CoV Urbani / Binding of serum 37 to looped/cyclic peptides of protein M of SARS-CoV Urbani / Binding of serum 6 to linear peptides of protein X3 of SARS-CoV Urbani / Binding of serum 37 to linear peptides of protein X3 of SARS-CoV Urbani / Binding of serum 37 to looped/cyclic peptides of protein X3 of SARS-CoV Urbani / Binding of serum 6 to linear peptides of protein X4 of SARS-CoV Urbani / Binding of serum 37 to linear peptides of protein X4 of SARS-CoV Urbani / Binding of serum 37 to looped/cyclic peptides of protein X4 of SARS-CoV Urbani / Binding of serum 6 to linear peptides of protein X5 of SARS-CoV Urbani / Binding of serum 37 to linear peptides of protein X5 of SARS-CoV Urbani / Binding of serum 37 to looped/cyclic peptides of protein X5 of SARS-CoV Urbani / Binding of serum 6 to linear peptides of protein N of SARS-CoV Urbani / Binding of serum 37 to linear peptides of protein N of SARS-CoV Urbani / Binding of serum 6 to linear peptide (PEPSCAN-ELISA) / Binding of serum 1a to looped/cyclic peptides of protein N of SARS-CoV Urbani / Binding of serum 1b to looped/cyclic peptides of protein N of SARS-CoV Urbani / Binding of serum 2 to looped/cyclic peptides of protein N of SARS-CoV Urbani / Binding of serum 6 to looped/cyclic peptides of protein N of SARS-CoV Urbani / Binding of serum 37 to looped/cyclic peptides of protein N of SARS-CoV Urbani / Binding of serum 62 to looped/cyclic peptides of protein N of SARS-CoV Urbani / Binding of serum London to looped/cyclic peptides of protein N of SARS-CoV Urbani / Binding of serum SARS-green to looped/cyclic peptides of protein N of SARS-CoV Urbani: unit not given here

Sequence: IVVTEGDGISTPKLK
- Binding of a rabbit serum to linear peptides [1]: 0.1
- Binding of a rabbit serum to looped peptides [1]: 0.4
- Binding of Control Serum Blood-Bank to Looped peptides [2]: 0.3
- Binding of Control serum Blood-bank to linear peptides [2]: 0.3
- Binding of Control serum LUMC to linear peptides [2]: 0.3
- Binding of Control serum LUMC to looped peptides [2]: 0.3
- Binding of serum 1a to linear peptides of protein X1 of SARS-CoV Urbani [3]: 0.5
- Binding of serum 1a to looped/cyclic peptides of protein X1 of SARS-CoV Urbani [3]: 0.3
- Binding of serum 1b to linear peptides of protein X1 of SARS-CoV Urbani [3]: 0.5
- Binding of serum 1b to looped/cyclic peptides of protein X1 of SARS-CoV Urbani [3]: 0.2
- Binding of serum 2 to linear peptides of protein X1 of SARS-CoV Urbani [3]: 0.3
- Binding of serum 2 to looped/cyclic peptides of protein X1 of SARS-CoV Urbani [3]: 0.1
- Binding of serum 6 to linear peptides of protein X1 of SARS-CoV Urbani [3]: 0.4
- Binding of serum 6 to looped/cyclic peptides of protein X1 of SARS-CoV Urbani [3]: 0.1
- Binding of serum 37 to linear peptides of protein X1 of SARS-CoV Urbani [3]: 0.5
- Binding of serum 37 to looped/cyclic peptides of protein X1 of SARS-CoV Urbani [3]: 0.2
- Binding of serum 62 to linear peptides of protein X1 of SARS-CoV Urbani [3]: 0.3
- Binding of serum 62 to looped/cyclic peptides of protein X1 of SARS-CoV Urbani [3]: 0.3
- Binding of serum London to linear peptides of protein X1 of SARS-CoV Urbani [3]: 0.2
- Binding of serum London to looped/cyclic peptides of protein X1 of SARS-CoV Urbani [3]: 0.1
- Binding of serum SARS-green to linear peptides of protein X1 of SARS-CoV Urbani [3]: 0.1
- Binding of serum SARS-green to looped/cyclic peptides of protein X1 of SARS-CoV Urbani [3]: 0.0
- Binding of serum SARS-yellow to linear peptides of protein X1 of SARS-CoV Urbani [3]: 0.1
- Binding of serum SARS-yellow to looped/cyclic peptides of protein X1 of SARS-CoV Urbani [3]: 0.1

Sequence: IYFLQCINACRIIMR
- Binding of a rabbit serum to linear peptides [1]: 0.5
- Binding of a rabbit serum to looped peptides [1]: 0.9
- Binding of Control Serum Blood-Bank to Looped peptides [2]: 0.6
- Binding of Control serum Blood-bank to linear peptides [2]: 0.7
- Binding of Control serum LUMC to linear peptides [2]: 0.7
- Binding of Control serum LUMC to looped peptides [2]: 0.6
- Binding of serum 1a to linear peptides of protein X1 of SARS-CoV Urbani [3]: 0.7
- Binding of serum 1a to looped/cyclic peptide (PEPSCAN-ELISA) [3]: 0.6
- Binding of serum 1b to linear peptides of protein X1 of SARS-CoV Urbani [3]: 0.6
- Binding of serum 1b to looped/cyclic peptide (PEPSCAN-ELISA) [3]: 0.4
- Binding of serum 2 to linear peptides of protein X1 of SARS-CoV Urbani [3]: 0.6
- Binding of serum 2 to looped/cyclic peptide (PEPSCAN-ELISA) [3]: 0.8
- Binding of serum 6 to linear peptides of protein X1 of SARS-CoV Urbani [3]: 0.5
- Binding of serum 6 to looped/cyclic peptide (PEPSCAN-ELISA) [3]: 1.0
- Binding of serum 37 to linear peptides of protein X1 of SARS-CoV Urbani [3]: 0.7
- Binding of serum 37 to looped/cyclic peptide (PEPSCAN-ELISA) [3]: 0.6
- Binding of serum 62 to linear peptides of protein X1 of SARS-CoV Urbani [3]: 0.7
- Binding of serum 62 to looped/cyclic peptide (PEPSCAN-ELISA) [3]: 0.7
- Binding of serum London to linear peptides of protein X1 of SARS-CoV Urbani [3]: 0.3
- Binding of serum London to looped/cyclic peptide (PEPSCAN-ELISA) [3]: 1.6
- Binding of serum SARS-green to linear peptides of protein X1 of SARS-CoV Urbani [3]: 0.2
- Binding of serum SARS-green to looped/cyclic peptide (PEPSCAN-ELISA) [3]: 0.2
- Binding of serum SARS-yellow to linear peptides of protein X1 of SARS-CoV Urbani [3]: 0.5
- Binding of serum SARS-yellow to looped/cyclic peptide (PEPSCAN-ELISA) [3]: 0.6

Sequence: KDLPKEITVATSRTL
- Rabbit serum linear peptides [1]: 0.2
- Rabbit serum looped peptides [1]: 0.3
- Binding of Control Serum Blood-Bank to Looped peptides of the protein M of SARS-CoV Urbani [2]: 0.6
- Binding of Control serum Blood-bank to linear peptides of the protein M of SARS-CoV Urbani [2]: 0.7
- Binding of Control serum LUMC to linear peptides of the protein M of SARS-CoV Urbani [2]: 0.6
- Binding of Control serum LUMC to looped peptides of the protein M of SARS-CoV Urbani [2]: 0.8
- Binding of serum 1a to linear peptides of protein M of SARS-CoV Urbani [3]: 0.7
- Binding of serum 1a to looped/cyclic peptides of protein M of SARS-CoV Urbani [3]: 0.6
- Binding of serum 1b to linear peptides of protein M of SARS-CoV Urbani [3]: 0.6
- Binding of serum 1b to looped/cyclic peptides of protein M of SARS-CoV Urbani [3]: 0.6
- Binding of serum 2 to linear peptides of protein M of SARS-CoV Urbani [3]: 0.6
- Binding of serum 2 to looped/cyclic peptides of protein M of SARS-CoV Urbani [3]: 0.7
- Binding of serum 6 to linear peptides of protein M of SARS-CoV Urbani [3]: 0.5
- Binding of serum 6 to looped/cyclic peptides of protein M of SARS-CoV Urbani [3]: 1.1
- Binding of serum 37 to linear peptides of protein M of SARS-CoV Urbani [3]: 0.5
- Binding of serum 37 to looped/cyclic peptides of protein M of SARS-CoV Urbani [3]: 0.6
- Binding of serum 62 to linear peptides of protein M of SARS-CoV Urbani [3]: 0.5
- Binding of serum 62 to looped/cyclic peptides of protein M of SARS-CoV Urbani [3]: 0.6
- Binding of serum London to linear peptides of protein M of SARS-CoV Urbani [3]: 0.3
- Binding of serum London to looped/cyclic peptides of protein M of SARS-CoV Urbani [3]: 1.1
- Binding of serum SARS-green to linear peptides of protein M of SARS-CoV Urbani [3]: 0.5
- Binding of serum SARS-green to looped/cyclic peptides of protein M of SARS-CoV Urbani [3]: 0.3
- Binding of serum SARS-yellow to linear peptides of protein M of SARS-CoV Urbani [3]: 0.2
- Binding of serum SARS-yellow to looped/cyclic peptides of protein M of SARS-CoV Urbani [3]: 0.9

Sequence: KEITVATSRTLSYYK
- Rabbit serum linear peptides [1]: 0.4
- Rabbit serum looped peptides [1]: 0.5
- Binding of Control Serum Blood-Bank to Looped peptides of the protein M of SARS-CoV Urbani [2]: 0.7
- Binding of Control serum Blood-bank to linear peptides of the protein M of SARS-CoV Urbani [2]: 0.8
- Binding of Control serum LUMC to linear peptides of the protein M of SARS-CoV Urbani [2]: 0.6
- Binding of Control serum LUMC to looped peptides of the protein M of SARS-CoV Urbani [2]: 0.7
- Binding of serum 1a to linear peptides of protein M of SARS-CoV Urbani [3]: 0.7
- Binding of serum 1a to looped/cyclic peptides of protein M of SARS-CoV Urbani [3]: 0.6
- Binding of serum 1b to linear peptides of protein M of SARS-CoV Urbani [3]: 0.6
- Binding of serum 1b to looped/cyclic peptides of protein M of SARS-CoV Urbani [3]: 0.5
- Binding of serum 2 to linear peptides of protein M of SARS-CoV Urbani [3]: 0.6
- Binding of serum 2 to looped/cyclic peptides of protein M of SARS-CoV Urbani [3]: 0.8
- Binding of serum 6 to linear peptides of protein M of SARS-CoV Urbani [3]: 0.0
- Binding of serum 6 to looped/cyclic peptides of protein M of SARS-CoV Urbani [3]: 1.3
- Binding of serum 37 to linear peptides of protein M of SARS-CoV Urbani [3]: 0.5
- Binding of serum 37 to looped/cyclic peptides of protein M of SARS-CoV Urbani [3]: 0.6
- Binding of serum 62 to linear peptides of protein M of SARS-CoV Urbani [3]: 0.6
- Binding of serum 62 to looped/cyclic peptides of protein M of SARS-CoV Urbani [3]: 0.5
- Binding of serum London to linear peptides of protein M of SARS-CoV Urbani [3]: 0.3
- Binding of serum London to looped/cyclic peptides of protein M of SARS-CoV Urbani [3]: 0.4
- Binding of serum SARS-green to linear peptides of protein M of SARS-CoV Urbani [3]: 0.4
- Binding of serum SARS-green to looped/cyclic peptides of protein M of SARS-CoV Urbani [3]: 0.2
- Binding of serum SARS-yellow to linear peptides of protein M of SARS-CoV Urbani [3]: 0.2
- Binding of serum SARS-yellow to looped/cyclic peptides of protein M of SARS-CoV Urbani [3]: 0.5
